From patent EP4755881A1 (Wuhan Createrna Science and Technology Co., Ltd., priority 2023, dated 2025)
Where two headings read alike, the source gives them in different places.

Molecular target: hLPAR1 (human lysophosphatidic acid receptor 1, Accession No.: NM_001401.4) (Homo sapiens, UniProt Q92633)
Test: cell-based
Settings: FLIPR method, CHO-K1 cells overexpressing hLPAR1
Procedure: The antagonist properties of the compounds in the present disclosure were determined using the FLIPR (Fluorometric Imaging Plate Reader) method in CHO-K1 cells (Chinese Hamster Ovary cells K1, ATCC) overexpressing hLPAR1 (human lysophosphatidic acid receptor 1, Accession No.: NM_001401.4).
CHO-K1 cells stably expressing hLPAR1 were placed in a cell culture incubator at 37°C with 5% CO2 and cultured in F-12 medium containing 10% FBS (fetal bovine serum, Gibco, 10099-141), 1% penicillin-streptomycin (Gibco, 15140-122), and 0.4 mg/mL Hygromycin B (Gibco, 10687010). 18-24 hours before the FLIPR experiment, the cells were seeded into a 96-well plate at a density of 250,000 cells/mL (25,000 cells/well) and incubated overnight in the cell culture incubator. On the day of the experiment, the medium was removed, and the cells were washed with FLIPR buffer (2.5 mM probenecid (Thermo, P36400), 1.3 mM CaCl2, 3.3 mM Na2CO3, 1 mM MgSO4, 20 mM HEPES (Invitrogen, 15630080), 1× HBSS (Invitrogen, 14065056), 0.1% BSA (BioSharp, 70080030)). 75 µL of […] Fluo-4 AM fluorescent dye (Thermo, F14202) was added to each well and incubated for 1.0 hour at 37°C for dye loading. The 96-well plate was then washed once with buffer, and 50 µL of buffer containing the test compound or vehicle was added to each well, followed by incubation at room temperature for 30 min. The cell plate was then placed into the FLIPR for baseline fluorescence measurement (excitation wavelength at 485 nm, emission wavelength at 525 to 535 nm). Subsequently, 50 µL/well of agonist (final concentration 1 µM oleoyl-L-α-lysophosphatidic acid sodium salt (Sigma, L7260)) or vehicle (ultrapure water) was added, and fluorescence values were measured at 1-second intervals for 2 min. Finally, the output fluorescence counts were analyzed using GraphPad Prism 9.0 software log(inhibitor) vs. response--Variable slope (four parameters) equation to calculate IC50 values.
Table 1: Inhibitory activity data of compounds against LPAR1

[1] = Table 1, read-out: LPAR1 inhibitory activity IC50
[2] = LPAR1 inhibitory activity IC50, Table 1

Chain of hLPAR1 (human lysophosphatidic acid receptor 1, Accession No.: NM_001401.4) (Q92633 whole entry): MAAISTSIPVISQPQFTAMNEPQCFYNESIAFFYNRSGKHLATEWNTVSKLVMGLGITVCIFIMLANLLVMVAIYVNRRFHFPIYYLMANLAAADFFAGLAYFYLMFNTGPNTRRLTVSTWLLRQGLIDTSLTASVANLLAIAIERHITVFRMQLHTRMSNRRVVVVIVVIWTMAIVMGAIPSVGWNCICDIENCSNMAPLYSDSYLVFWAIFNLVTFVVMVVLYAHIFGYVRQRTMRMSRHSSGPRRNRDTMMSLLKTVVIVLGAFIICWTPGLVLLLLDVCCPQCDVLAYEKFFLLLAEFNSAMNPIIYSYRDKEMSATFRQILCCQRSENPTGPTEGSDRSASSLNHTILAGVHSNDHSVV

Cc1nc(-c2nnn(C)c2NC(=O)O[C@H](C)c2ccccc2F)ccc1C#C[C@@H]1CCCC[C@H]1C(=O)O (mixture of isomers) [028-B, trans-2-((6-(5-((((R)-1-(2-fluorophenyl)ethoxy)carbonyl)amino)-1-methyl-1H-1,2,3-triazol-4-yl)-2-methylpyridin-3-yl)ethynyl)cyclohexane-1-carboxylic acid]
IC50 [1]: 60.4 nM

Cc1nc(-c2nnn(C)c2NC(=O)OC(C)C(C)(C)C)ccc1C#CC1(CC(=O)O)CC1 (centres unmarked) [compound 319]
IC50 [2]: 124 nM

CCCCN(C)C(=O)OCc1c(-c2ccc(C#CC3(CC(=O)O)CC3)c(CC)n2)nnn1C [compound 100]
IC50 [1]: 44.3 nM

Cc1nc(-c2cnn(C)c2NC(=O)O[C@H](C)c2ccccc2Cl)ccc1C#CC1(CC(=O)O)CC1 [compound 005, (R)-2-(1-((6-(5-(((1-(2-chlorophenyl)ethoxy)carbonyl)amino)-1-methyl-1H-pyrazol-4-yl)-2-methylpyridin-3-yl)ethynyl)cyclopropyl)acetic acid]
IC50 [1]: 22.6 nM

Cc1nc(-c2nnn(C)c2NC(=O)O[C@H](C)CC(C)(F)F)ccc1C#C[C@@H]1CCC[C@H]1C(=O)O (single isomer, unassigned) [246-A]
IC50 [2]: 18.3 nM

Cc1nc(-c2nnn(C)c2NC(=O)O[C@H](C)c2ccccc2)ccc1C#C[C@@H]1CC(F)(F)C[C@H]1C(=O)O [compound 226]
IC50 [1]: 0.4 nM

Cc1nc(-c2nnn(C)c2NC(=O)OC(C)C2CCC2)ccc1C#CC1CC(F)(F)CC1C(=O)O (centres unmarked) [242-A]
IC50 [1]: 7 nM

CCC(F)(F)[C@@H](C)OC(=O)Nc1c(-c2ccc(C#C[C@@H]3CCC[C@H]3C(=O)O)c(C)n2)nnn1C (mixture of isomers) [219-A, trans-2-((6-(5-(((((R)-3,3-difluoropentan-2-yl)oxy)carbonyl)amino)-1-methyl-1H-1,2,3-triazol-4-yl)-2-methylpyridin-3-yl)ethynyl)cyclopentane-1-carboxylic acid]
IC50 [1]: 3.3 nM

Cc1nc(-c2nnn(C)c2NC(=O)OC(C)C2CC2(F)F)ccc1C#CC1(CC(=O)O)CC1 (centres unmarked) [compound 081]
IC50 [2]: 174 nM

Cc1nc(-c2nnn(C)c2NC(=O)O[C@H](C)CC2CC2)ccc1C#CC1(CC(=O)O)CC1 [compound 302]
IC50 [2]: 24.7 nM

Cc1nc(-c2nnn(C)c2NC(=O)OC(C)C2CC(F)(F)C2)ccc1C#CC1(CC(=O)O)CC1 (centres unmarked) [compound 029, 2-(1-((6-(5-(((1-(3,3-difluorocyclobutyl)ethoxy)carbonyl)amino)-1-methyl-1H-1,2,3-triazol-4-yl)-2-methylpyridin-3-yl)ethynyl)cyclopropyl)acetic acid]
IC50 [1]: 219 nM

Cc1nc(-c2nnn(C)c2COC(=O)N(C)CC2CC2(F)F)ccc1C#CC1(CC(=O)O)CC1 (centres unmarked) [compound 068]
IC50 [1]: 129 nM

Cc1nc(-c2nnn(C)c2NC(=O)OC(C)CCCF)ccc1C#CC1(CC(=O)O)CC1 (racemic) [compound 280]
IC50 (read-out: LPAR1 inhibitory activity IC50, Table 1): 75.7 nM

Cc1nc(-c2nnn(C)c2NC(=O)OC(C)C2CCCC2)ccc1C#CC1(CC(=O)O)CC1 (centres unmarked) [092', 2-(1-((6-(5-(((1-cyclopentylethoxy)carbonyl)amino)-1-methyl-1H-1,2,3-triazol-4-yl)-2-methylpyridin-3-yl)ethynyl)cyclopropyl)acetic acid]
IC50 [1]: 18.7 nM

Cc1nc(-c2nnn(C)c2COC(=O)N(C)[C@H](C)C2CC2)ccc1C#CC1(CC(=O)O)CC1 [compound 030, (R)-2-(1-((6-(5-((((1-cyclopropylethyl)(methyl)carbamoyl)oxy)methyl)-1-methyl-1H-1,2,3-triazol-4-yl)-2-methylpyridin-3-yl)ethynyl)cyclopropyl)acetic acid]
IC50 [1]: 33.6 nM

Cc1nc(-c2nnn(C)c2COC(=O)N(C)CC2CC2C)ccc1C#CC1(CC(=O)O)CC1 (centres unmarked) [compound 073]
IC50 [1]: 79.1 nM

CCC[C@@H](C)OC(=O)Nc1c(-c2ccc(C#CC3(CC(=O)O)CC3)c(C)n2)nnn1C [010-A]
IC50 [1]: 45.9 nM

Cc1nc(-c2nnn(C)c2NC(=O)O[C@H](C)c2ccccc2)ccc1C#CC1(CC(=O)O)CC1 [compound 022, (R)-2-(1-((2-methyl-6-(1-methyl-5-(((1-phenylethoxy)carbonyl)amino)-1H-1,2,3-triazol-4-yl)pyridin-3-yl)ethynyl)cyclopropyl)acetic acid]
IC50 [1]: 9.5 nM

Cc1nc(-c2nnn(C)c2NC(=O)O[C@H](C)CC(C)(F)F)ccc1C#C[C@@H]1CC(F)(F)C[C@H]1C(=O)O [compound 247]
IC50 [1]: 10.2 nM

CCCCN(C)C(=O)OCc1c(-c2ccc(C#CC3(CC(=O)O)CC3)c(C)n2)nnn1C [compound 004, 2-(1-((6-(5-(((butyl(methyl)carbamoyl)oxy)methyl)-1-methyl-1H-1,2,3-triazol-4-yl)-2-methylpyridin-3-yl)ethynyl)cyclopropyl)acetic acid]
IC50 [1]: 66.3 nM

CCC(F)(F)[C@@H](C)OC(=O)Nc1c(-c2ccc(C#CC3(CC(=O)O)CC3)c(C)n2)nnn1C [207', (R)-2-(1-((6-(5-((((3,3-difluoropentan-2-yl)oxy)carbonyl)amino)-1-methyl-1H-1,2,3-triazol-4-yl)-2-methylpyridin-3-yl)ethynyl)cyclopropyl)acetic acid]
IC50 [1]: 20.2 nM

CCC[C@@H](C)OC(=O)Nc1c(-c2ccc(C#CC3(CC(=O)O)CCC3)c(C)n2)nnn1C [compound 325]
IC50 [2]: 40.3 nM

Cc1nc(-c2nnn(C)c2COC(=O)N(C)CC2CCC2)ccc1C#CC1CC(F)(F)CC1C(=O)O (racemic) [compound 362]
IC50 [1]: 20.4 nM

Cc1nc(-c2nnn(C)c2NC(=O)O[C@H](C)CC2CC2)ccc1C#C[C@@H]1CC(F)(F)C[C@H]1C(=O)O (mixture of isomers) [compound 205, trans-2-((6-(5-(((((R)-1-cyclopropylpropan-2-yl)oxy)carbonyl)amino)-1-methyl-1H-1,2,3-triazol-4-yl)-2-methylpyridin-3-yl)ethynyl)-4,4-difluorocyclopentane-1-carboxylic acid]
IC50 [1]: 3.1 nM

Cc1nc(-c2nnn(C)c2NC(=O)O[C@H](C)C(C)C)ccc1C#CC1(CC(=O)O)CC1 [compound 310]
IC50 [2]: 114 nM

CCC(F)(F)CN(C)C(=O)OCc1c(-c2ccc(C#CC3(CC(=O)O)CC3)c(C)n2)nnn1C [compound 082]
IC50 [1]: 157 nM

Cc1nc(-c2nnn(C)c2COC(=O)N(C)CC2CCC2(F)F)ccc1C#CC1(CC(=O)O)CC1 (centres unmarked) [compound 026, 2-(1-((6-(5-(((((2,2-difluorocyclobutyl)methyl)(methyl)carbamoyl)oxy)methyl)-1-methyl-1H-1,2,3-triazol-4-yl)-2-methylpyridin-3-yl)ethynyl)cyclopropyl)acetic acid]
IC50 [1]: 52.7 nM

Cc1nc(-c2nnn(C)c2NC(=O)OC(C)CC(C)(C)F)ccc1C#CC1CCC1C(=O)O (single isomer, unassigned) [306-B]
IC50 [1]: 53.6 nM

Cc1nc(-n2nnc(C)c2NC(=O)O[C@H](C)c2ccccc2Cl)ccc1C#CC1(CC(=O)O)CC1 [compound 006, (R)-2-(1-((6-(5-(((1-(2-chlorophenyl)ethoxy)carbonyl)amino)-4-methyl-1H-1,2,3-triazol-1-yl)-2-methylpyridin-3-yl)ethynyl)cyclopropyl)acetic acid]
IC50 [1]: 42 nM

Cc1nc(-c2onc(C)c2NC(=O)O[C@H](C)CC(C)(F)F)ccc1C#C[C@@H]1CCC[C@H]1C(=O)O [compound 343]
IC50 [1]: 5.7 nM

Cc1nc(-c2nnn(C)c2NC(=O)OC(C)CC(C)(C)F)ccc1C#CC1CCC1C(=O)O (single isomer, unassigned) [306-A]
IC50 [1]: 50.6 nM

Cc1nc(-c2nnn(C)c2COC(=O)N(C)CC2CCCC2(F)F)ccc1C#CC1(CC(=O)O)CC1 (centres unmarked) [compound 095]
IC50 [1]: 39.9 nM

CN(CCCCF)C(=O)OCc1c(-c2ccc(C#CC3(CC(=O)O)CC3)c(C3CC3)n2)nnn1C [compound 218, 2-(1-((2-cyclopropyl-6-(5-((((4-fluorobutyl)(methyl)carbamoyl)oxy)methyl)-1-methyl-1H-1,2,3-triazol-4-yl)pyridin-3-yl)ethynyl)cyclopropyl)acetic acid]
IC50 [1]: 90.2 nM

Cc1nc(-c2nnn(C)c2COC(=O)N(C)CCC(C)F)ccc1C#CC1(CC(=O)O)CC1 (centres unmarked) [compound 037, 2-(1-((6-(5-((((3-fluorobutyl)(methyl)carbamoyl)oxy)methyl)-1-methyl-1H-1,2,3-triazol-4-yl)-2-methylpyridin-3-yl)ethynyl)cyclopropyl)acetic acid]
IC50 [1]: 105 nM

Cc1nc(-c2nnn(C)c2NC(=O)OC(C)CC2CC2)ccc1C#CC1CCC1C(=O)O (single isomer, unassigned) [248-B]
IC50 [1]: 19.1 nM
